The values that follow come from patent US20200329698A1, “COMPOSITIONS FOR ORGAN GRAFT PRESERVATION AND METHODS OF USE” (Nobilis Therapeutics, Inc., priority 2019, published 2020).

The test system of this experiment is Lewis rat lung grafts extracted after cardiac death. As for the experimental part: Inbred adult male Lewis rats (LEW, RT1^1) weighing 225-250 g were purchased from Harlan, UK and bred in temperature- and humidity-controlled cages in a specific pathogen-free facility at the Chelsea-Westminster Campus, Imperial College London. All animal procedures were carried out in accordance with the United Kingdom Animals (Scientific Procedures) Act of 1986. For cardiac arrest model (DCD donor) in anaesthetized rats, anticoagulation was accomplished by injecting 250 U Heparin in 1 ml saline via the penile vein. Five minutes after heparinization, a laparotomy was performed through a midline incision. A thoracotomy was performed followed by induction of cardiac arrest by external compression of the heart for 5 min. After induction of cardiac arrest, the aorta was closed using a vascular clamp rostral from the heart. The thoracotomy wound was covered with gauze and kept moist with 0.9% NaCl. After 40 minutes in DCD donors, the entire graft, lung or kidney, in the donor was isolated and excised. Lung grafts were flushed through the main pulmonary artery and stored at 4° C. for 16 hours with either control UW solution or UW with Dex (0.1 nM) solution. Lung or kidney grafts were fixed in 4% parafamydehyde and paraffin. Sections of 5-μm thickness were taken from the kidney specimens and haematoxylin & eosin (H&E) staining was carried out. Lung cell morphology in each graft (10 fields in the cortex at ×20 magnifications) was evaluated by an observer blinded to the treatment using an OLYMPUS™ (Watford, UK) BX4 microscope under constant exposure level. The score for each field was calculated from the sum score of 10 areas chosen at a random. For the lung sections, the injury was categorised into Grade 0: normal appearance, negligible damage; Grade 1: mild moderate interstitial congestion and neutrophil leukocyte infiltrations; Grade 2: perivascular oedema formation, partial destruction of pulmonary architecture and moderate cell infiltration; Grade 3: moderate lung alveolar damage and intensive cell infiltration; Grade 4: severe cell infiltration and severe destruction of the pulmonary architecture. For in vivo fluorescence or DAB staining, 25-μm frozen lung sections were incubated with rabbit anti-Rip1 (1:200, SANTA CRUZ BIOTECHNOLOGY®), rabbit anti-Rip3 (1:200, SANTA CRUZ BIOTECHNOLOGY®), mouse anti-HMGB-1 (1:200, Abcam), Goat anti-TLR-4 (1:200, SANTA CRUZ BIOTECHNOLOGY®), rabbit anti-Nrf-2 (1:200, SANTA CRUZ BIOTECHNOLOGY®), mouse anti-SOD-1 (1:200, Abcam), mouse anti-NQO-1 (1:200 Abcam), rabbit anti-3-nitrotyrosine (1:200, Abcam) and rabbit anti-4-hydroxynonenal (1:200, Abcam) at 4° C. overnight. After washing with PBST, the slides were incubated with fluorochrome-conjugated secondary antibodies (MILLIPORE™, UK). For double-labelled immunofluorescence, lung samples were incubated with the first primary antibody overnight, followed by the first secondary antibody, and then the second primary antibody and the second secondary antibody. The slides were counterstained with nuclear dye DAPI and mounted with […]® Mounting Medium (Vector lab, USA). Sections were examined using an OLYMPUS™ (Watford, UK) BX4 microscope under constant exposure level. Immunofluorescence was quantified using ImageJ (National Institutes of Health, Maryland, USA) and the background was subtracted. Ten representative regions per section (in vivo) or field (in vitro) were randomly selected by an assessor blinded to the treatment groups. Values were then calculated as percentages of the mean value for naïve controls and expressed as percentage fluorescence intensity. Lung alveolar cell death was detected by the in situ TUNEL assay (MILLIPORE™) according to the manufacturer's instructions. TUNEL nuclei were visualized by green FITC fluorescence. Tumor necrosis factor-α (TNF-α) in the culture medium were detected by ELISA (Human TNF-α ELISA kits, INVITROGEN®, UK). Rat lung tissue and serum TNF-α were measured by ELISA (Rat TNF-α ELISA kits, INVITROGEN®, UK). […]

Where [1] appears, read: Dex 0.1 nM in UW at 4° C., CI 16 hr, vs vehicle.
Setting [2] is: Dex-saturated UW, CI 16 h, p<0.001.
The mark [3] stands for this setting: Dex-saturated UW, CI 16 h, p<0.05.

Take `Cc1cccc([C@H](C)c2cnc[nH]2)c1C` [Dexmedetomidine]: under setting [1], the HMGB-1 release result is given as “reduction”, the “TLR-4 activation (fluorescent intensity)” value was “reduction”, the “cell death (TUNEL staining)” value is given as “reduced cell death” and the “concentration of HMGB-1 in lung graft tissue (ELISA)” value is on record as “significantly reduced”. Moreover, under setting [1], the “concentration of IL-1β in lung graft tissue (ELISA)” value was “significantly reduced”, the “concentration of TNF-α in lung graft tissue (ELISA)” value is recorded as “significantly reduced”, the “expression of necroptosis marker RIP1 (fluorescent intensity)” value was “significantly reduced” and the “expression of necroptosis marker RIPS (RIPK3 fluorescent intensity)” value was “significantly reduced”. Under setting [1], the “lung morphology (H&E, lung injury scoring)” value is listed as “marked improvement in morphology”. Further, the “expression of 3-nitrotyrosine (fluorescent intensity)” value (Dex-saturated UW, CI 16 h, vs control group, p<0.001) was “significant reduction”. In addition, the “expression of 4-hydroxynonenal (fluorescent intensity)” value (Dex-saturated UW, CI 16 h, vs control group, p<0.05) is on record as “significant reduction”. For the same compound, under setting [2], the “expression of Nrf-2 (fluorescent intensity)” value was “significant increase”, the “expression of SOD-1 (fluorescent intensity)” value is given as “significant increase” and the “lung tissue GSH/GSSG ratio” value is recorded as “significant increase”. In addition, the “lung tissue GSSG level” value (Dex-saturated UW, CI 16 h, p<0.01) is listed as “significant decrease”. In addition, under setting [3], the “expression of NQO-1 (fluorescent intensity)” value is “significant increase” and the “lung tissue GSH level” value is listed as “significant increase”.
